Holding throughout (type): cell-based
Experiment [1] deals with Vimentin–p53 association in SW-620/5-FU-R cells. In words: Immunoprecipitation of Vimentin and p53. The following applies: 300 nM, 48 h, vs ample p53 in vehicle. On the procedure: Fig. 3 Chk2-dependent role of 4DPG in modulating p53 and repressing Vimentin expression in 5-FU-R cells. A Immunocytochemistry results showing the Vimentin expression level in SW-620/5-FU-R cells treated/transfected with scramble, SiChk2, scramble plus 4DPG, SiChk2 plus 4DPG, vehicle, PV1019, 4DPG, and PV1019 plus 4DPG for 48 h. Scale bars: 50 µm. […] C Matrigel invasion assay results showing invaded HCT-116/5-FU-R and SW-620/5-FU-R cells following 48 h of transient transfection with GFP and GFP-Chk2 plasmid construct. Scale bars: 50 µm. D Quantification of the number of invaded cells per field from the above experimental conditions. n = 3, error bars, mean ± SD; *P < 0.05, ***P < 0.001. E Immunocytochemistry results displaying Vimentin expression levels in HCT-116/5-FU-R and SW-620/5-FU-R cells after 48 h of transient transfection with pCDNA3 and/or HA-Chk2 plasmid construct. Scale bars: 50 µm. F Immunoprecipitation with Vimentin or p53 followed by western blotting analysis of p53 in SW-620/5-FU-R cells treated with vehicle and/or 4DPG (300 nM) for 48 h. […]
For immunoprecipitation analysis, the previously described procedure was followed with minor modification. […] Following careful washing with lysis buffer, the immunoprecipitates were analyzed by western blotting.

Another experiment has as its system HT-29/5-FU-R cells. In words: Western blotting of Chk2 after 4DPG. The settings on record: 48 h, vs vehicle. The text has this:
(§1) 4DPG, a podophyllotoxin class of natural product anticancer compound (Supplementary Fig. S2A) has been recently described by our research group for its potent antitumor and anti-metastatic properties against aggressive cancers[31],[32]. Further, 4DPG augments phosphorylation and activation of Chk2 (Thr68) leading to suppression of EMT and invasiveness of p53-defective cancer cells. To investigate the effect of 4DPG on phosphorylation and expression levels of Chk2 in HCT-116/5-FU-R, SW-620/5-FU-R, and HT-29/5-FU-R cells, we treated these cells for 48 h with increasing concentrations of the compound, and whole-cell lysates were subjected to western blotting analysis. […] To determine the effect of 4DPG on the invasion abilities of these 5-FU-R cells, we performed in situ fluorescent gelatin degradation assay following our pre-standardized protocol[31],[37]. In physiological conditions, this assay mimics the extracellular matrix degradation by aggressive tumor cells undergoing invasion–metastasis process.
We adhered to the previously published protocol for western blotting. To sum up, cells were exposed to the respective treatments (mentioned in figure legends). Post-treatment, cells were lysed with cell lysis buffer, and cell lysates were collected after centrifugation. Bradford assay was performed to quantify the protein concentration. […]

Experiment [2] relates to SW-620/5-FU-R cells. In words: Cellular fractionation and western blotting of p53 and Vimentin. The settings on record: 300 nM, 48 h, vs vehicle. The protocol:
(§2) Fig. 3 Chk2-dependent role of 4DPG in modulating p53 and repressing Vimentin expression in 5-FU-R cells. A Immunocytochemistry results showing the Vimentin expression level in SW-620/5-FU-R cells treated/transfected with scramble, SiChk2, scramble plus 4DPG, SiChk2 plus 4DPG, vehicle, PV1019, 4DPG, and PV1019 plus 4DPG for 48 h. Scale bars: 50 µm. […] C Matrigel invasion assay results showing invaded HCT-116/5-FU-R and SW-620/5-FU-R cells following 48 h of transient transfection with GFP and GFP-Chk2 plasmid construct. Scale bars: 50 µm. D Quantification of the number of invaded cells per field from the above experimental conditions. n = 3, error bars, mean ± SD; *P < 0.05, ***P < 0.001. E Immunocytochemistry results displaying Vimentin expression levels in HCT-116/5-FU-R and SW-620/5-FU-R cells after 48 h of transient transfection with pCDNA3 and/or HA-Chk2 plasmid construct. Scale bars: 50 µm. F Immunoprecipitation with Vimentin or p53 followed by western blotting analysis of p53 in SW-620/5-FU-R cells treated with vehicle and/or 4DPG (300 nM) for 48 h. G Cytosolic (left panel) and nuclear (right panel) extracts of SW-620/5-FU-R cells treated with vehicle and/or 4DPG (300 nM) for 48 h showing protein expression of Vimentin and p53. Tubulin and lamin expression was considered as endogenous loading controls for cytosolic and nuclear fractions, respectively.
Moreover, to gain mechanistic insights into how 4DPG-induced activation of Chk2 suppresses EMT and invasiveness, we examined the downstream substrates of Chk2. Tumor suppressor p53 acts as a direct substrate of Chk2 that regulates cell cycle, DNA repair, or apoptosis of cancer cells in response to DNA damage[27],[39]. We attempted to investigate whether there any molecular interaction takes place between Vimentin and p53 in these 5-FU-R cells. Our immunoprecipitation analysis unveiled that 4DPG potentially interrupted the association of Vimentin and p53 in SW-620/5-FU-R cells. […] Since 4DPG disrupted the Vimentin–p53 association, we were curious to see the consequences on p53 expression in various cellular compartments. We separated cytosolic and nuclear fractions of SW-620/5-FU-R cells treated with vehicle and/or 4DPG and conducted western blotting analysis considering relevant loading controls.
SW-620/5-FU-R cells seeded in 90-mm Petri dishes were treated with vehicle and/or 4DPG for 48 h, following overnight incubation. Cells were then harvested, washed with PBS; cytosolic and nuclear extracts were prepared following our established protocol[37],[56].

In experiment [3] the test system is SW-620/5-FU-R cells. The experiment is described as follows: Immunocytochemistry of Vimentin. The settings on record: 48 h.
Description: as §1
To examine whether 4DPG-mediated repression of Vimentin and invasiveness is a Chk2-dependent process, we performed genetic silencing of endogenous Chk2 in the 5-FU-R cells using target-specific SiRNAs.
as §2
We followed the standard protocol with some modifications for immunocytochemistry[56],[58]. In brief, cells, at a density of 4 × 10^5 cells/well, were seeded over the sterile coverslips placed in six-well plates. Following the respective treatment, cells were washed thrice with PBS. Next, the cells were fixed with 4% paraformaldehyde (pH = 7.4) for 15 min, permeabilized with 0.3% Triton X-100 for 10 min, and then blocked with 1% goat serum for 30 min. Consequently, the cells were incubated with anti-Vimentin antibody overnight at 4 °C, at a dilution of 1:100, followed by washing with PBST and further incubation with secondary anti-rabbit Alexa Fluor 488 (1:750 dilution). After subsequent washing and mounting, the images were captured at ×20 magnification under Floid Cell Imaging Station (Invitrogen).

The values that follow come from paper PMC7838189, “Natural podophyllotoxin analog 4DPG attenuates EMT and colorectal cancer progression via activation of checkpoint kinase 2” (Cell Death Discovery, 2021).

As for `COc1cc([C@@H]2c3cc4c(cc3C[C@H]3COC(=O)[C@@H]32)OCO4)cc(OC)c1O[C@@H]1O[C@H](CO)[C@@H](O)[C@H](O)[C@H]1O` [4DPG, 4′-demethyl-deoxypodophyllotoxin glucoside], the “p53 detected in Vimentin pull-down lysates” value in experiment [1] is given as “negligible p53 expression”. For the same compound, in the experiment with HT-29/5-FU-R cells (300 nM (sub-toxic)), the “increase in p-Chk2 (Thr68) level” value was 7.9 fold. Also, the “expression of Chk2 (total)” value in the experiment with HT-29/5-FU-R cells is “did not alter significantly”. For the same compound, in the experiment with SW-620/5-FU-R cells [2], the “augmentation in p53 expression, cytosolic fraction” value worked out at 1.65 fold; the “decrease in Vimentin level, nuclear fraction” value was found to be 20 fold; the “downregulation of Vimentin level, cytosolic fraction” value came out at 2.2 fold; the “increase in p53, nuclear fraction” value is 2.2 fold. The “Vimentin expression level (immunocytochemistry)” value with SW-620/5-FU-R cells [3] (300 nM) was “considerable decrease”. The “inhibition of Vimentin level by 4DPG” value with SW-620/5-FU-R cells [3] (PV1019 plus 4DPG) is reported as “negligible inhibition”. In the experiment on SW-620/5-FU-R cells [3] (SiChk2 plus 4DPG (Chk2-silenced)), the “inhibition of Vimentin level by 4DPG” value is recorded as “mild inhibition”. Also, in the experiment on SW-620/5-FU-R cells [3] (scramble plus 4DPG), the “Vimentin level (immunocytochemistry)” value is given as “substantial reduction”.
